# Patent publication US10617693B2, “Methods of treating and/or preventing actinic keratosis” (Athenex, Inc., priority 2017, dated 2020)
# System: subjects with AK on the face or scalp
# Experiment: Phase 2a study KX01-AK-002: local skin reactions (grade 0 not present to 4 worst) and adverse events, 0.5 mg KX-01 on 25 cm^2
# Type: in vivo, human
# Description: An ongoing Phase 2a, open-label, multicenter, activity and safety study of KX-01 administered topically in subjects with AK on the face or scalp is described herein. […] Secondary objectives are to assess the activity of KX-01 administered topically during Days 1-57 based on reduction of AK lesion counts from baseline, assess the safety and tolerability and pharmacokinetics, and contrast the dose regimens (5-day treatment with 3-day treatment) in terms of activity and safety in subjects with AK on the face or scalp. This uncontrolled, nonrandomized trial is being conducted at 16 investigational sites in the United States. Enrollment is sequential for 2 cohorts of approximately 80 subjects each. Enrollment is closed for Cohort 1 and ongoing for Cohort 2. The two treatment cohorts are summarized below: • Cohort 1: 0.5 mg KX-01 administered topically to a contiguous treatment area of 25 cm^2 with 4-8 clinically typical AK lesions for 5 consecutive days • Cohort 2: 0.5 mg KX-01 administered topically to a contiguous treatment area of 25 cm^2 with 4-8 clinically typical AK lesions for 3 consecutive days
# 0.5 mg KX-01 is administered topically to an area of 25 cm^2 on the face or scalp by site staff on treatment days. […] AK lesion counts are recorded at baseline, days 8, 15, 29, and 57. […] Standardized photography of treatment area is performed at baseline, day 8 and day 57. Plasma samples are being collected at preplanned time points on days 1 and 5 for Cohort 1, and on days 1 and 3 for Cohort 2.
# Absence or presence of hyperpigmentation, hypopigmentation and scarring are also assessed. Application site reactions not classified as LSRs are reported as AEs. […] LSRs and AEs are reported separately. All LSRs, pigmentation, and scarring in the treatment area will be followed to resolution or stabilization.
# The range of possible composite scores is 0-24.
# The Phase 2a trial described in Example 2a was completed with 84 eligible subjects enrolled in each of two cohorts: one cohort was subjected to the treatment for 5 consecutive days, and the other cohort was subjected to the treatment for 3 consecutive days. The results are described below and in FIG. 5.
smiles,measurement,setting,value
O=C(Cc1ccc(-c2ccc(OCCN3CCOCC3)cc2)cn1)NCc1ccccc1 [KX-01],"Crusting maximal post-baseline grade 0, subjects (%)","3-day, N = 84",58 (69%)
same,"Crusting maximal post-baseline grade 1, subjects (%)","3-day, N = 84",16 (19%)
same,"Crusting maximal post-baseline grade 2, subjects (%)","3-day, N = 84",9 (11%)
same,"Crusting maximal post-baseline grade 3, subjects (%)","3-day, N = 84",1 (1%)
same,"Crusting maximal post-baseline grade 4, subjects (%)","3-day, N = 84",0 (0%)
same,"Erosion/Ulceration maximal post-baseline grade 0, subjects (%)","3-day, N = 84",79 (94%)
same,"Erosion/Ulceration maximal post-baseline grade 1, subjects (%)","3-day, N = 84",5 (6%)
same,"Erosion/Ulceration maximal post-baseline grade 2, subjects (%)","3-day, N = 84",0 (0%)
same,"Erosion/Ulceration maximal post-baseline grade 3, subjects (%)","3-day, N = 84",0 (0%)
same,"Erosion/Ulceration maximal post-baseline grade 4, subjects (%)","3-day, N = 84",0 (0%)
same,"Erythema maximal post-baseline grade 0, subjects (%)","3-day, N = 84",30 (36%)
same,"Erythema maximal post-baseline grade 1, subjects (%)","3-day, N = 84",22 (26%)
same,"Erythema maximal post-baseline grade 2, subjects (%)","3-day, N = 84",26 (31%)
same,"Erythema maximal post-baseline grade 3, subjects (%)","3-day, N = 84",6 (7%)
same,"Erythema maximal post-baseline grade 4, subjects (%)","3-day, N = 84",0 (0%)
same,"Flaking/Scaling maximal post-baseline grade 0, subjects (%)","3-day, N = 84",39 (46%)
same,"Flaking/Scaling maximal post-baseline grade 1, subjects (%)","3-day, N = 84",18 (21%)
same,"Flaking/Scaling maximal post-baseline grade 2, subjects (%)","3-day, N = 84",19 (23%)
same,"Flaking/Scaling maximal post-baseline grade 3, subjects (%)","3-day, N = 84",8 (10%)
same,"Flaking/Scaling maximal post-baseline grade 4, subjects (%)","3-day, N = 84",0 (0%)
same,"Swelling maximal post-baseline grade 0, subjects (%)","3-day, N = 84",76 (90%)
same,"Swelling maximal post-baseline grade 1, subjects (%)","3-day, N = 84",8 (10%)
same,"Swelling maximal post-baseline grade 2, subjects (%)","3-day, N = 84",0 (0%)
same,"Swelling maximal post-baseline grade 3, subjects (%)","3-day, N = 84",0 (0%)
same,"Swelling maximal post-baseline grade 4, subjects (%)","3-day, N = 84",0 (0%)
same,"Vesiculation/Pustulation maximal post-baseline grade 0, subjects (%)","3-day, N = 84",83 (99%)
same,"Vesiculation/Pustulation maximal post-baseline grade 1, subjects (%)","3-day, N = 84",0 (0%)
same,"Vesiculation/Pustulation maximal post-baseline grade 2, subjects (%)","3-day, N = 84",1 (1%)
same,"Vesiculation/Pustulation maximal post-baseline grade 3, subjects (%)","3-day, N = 84",0 (0%)
same,"Vesiculation/Pustulation maximal post-baseline grade 4, subjects (%)","3-day, N = 84",0 (0%)
same,Local safety profile compared to Picato,"5-day treatment, cross-study",more benign local safety profile
same,"Crusting maximal post-baseline grade 0, subjects (%)","5-day, N = 84",51 (61%)
same,"Crusting maximal post-baseline grade 1, subjects (%)","5-day, N = 84",25 (30%)
same,"Crusting maximal post-baseline grade 2, subjects (%)","5-day, N = 84",8 (10%)
same,"Crusting maximal post-baseline grade 3, subjects (%)","5-day, N = 84",0 (0%)
same,"Crusting maximal post-baseline grade 4, subjects (%)","5-day, N = 84",0 (0%)
same,"Erosion/Ulceration maximal post-baseline grade 0, subjects (%)","5-day, N = 84",71 (85%)
same,"Erosion/Ulceration maximal post-baseline grade 1, subjects (%)","5-day, N = 84",12 (14%)
same,"Erosion/Ulceration maximal post-baseline grade 2, subjects (%)","5-day, N = 84",1 (1%)
same,"Erosion/Ulceration maximal post-baseline grade 3, subjects (%)","5-day, N = 84",0 (0%)
same,"Erosion/Ulceration maximal post-baseline grade 4, subjects (%)","5-day, N = 84",0 (0%)
same,"Erythema maximal post-baseline grade 0, subjects (%)","5-day, N = 84",15 (18%)
same,"Erythema maximal post-baseline grade 1, subjects (%)","5-day, N = 84",16 (19%)
same,"Erythema maximal post-baseline grade 2, subjects (%)","5-day, N = 84",35 (42%)
same,"Erythema maximal post-baseline grade 3, subjects (%)","5-day, N = 84",17 (20%)
same,"Erythema maximal post-baseline grade 4, subjects (%)","5-day, N = 84",1 (1%)
same,"Flaking/Scaling maximal post-baseline grade 0, subjects (%)","5-day, N = 84",33 (39%)
same,"Flaking/Scaling maximal post-baseline grade 1, subjects (%)","5-day, N = 84",10 (12%)
same,"Flaking/Scaling maximal post-baseline grade 2, subjects (%)","5-day, N = 84",24 (29%)
same,"Flaking/Scaling maximal post-baseline grade 3, subjects (%)","5-day, N = 84",16 (19%)
same,"Flaking/Scaling maximal post-baseline grade 4, subjects (%)","5-day, N = 84",1 (1%)
same,"Swelling maximal post-baseline grade 0, subjects (%)","5-day, N = 84",66 (79%)
same,"Swelling maximal post-baseline grade 1, subjects (%)","5-day, N = 84",16 (19%)
same,"Swelling maximal post-baseline grade 2, subjects (%)","5-day, N = 84",1 (1%)
same,"Swelling maximal post-baseline grade 3, subjects (%)","5-day, N = 84",1 (1%)
same,"Swelling maximal post-baseline grade 4, subjects (%)","5-day, N = 84",0 (0%)
same,"Vesiculation/Pustulation maximal post-baseline grade 0, subjects (%)","5-day, N = 84",80 (95%)
same,"Vesiculation/Pustulation maximal post-baseline grade 1, subjects (%)","5-day, N = 84",4 (5%)
same,"Vesiculation/Pustulation maximal post-baseline grade 2, subjects (%)","5-day, N = 84",0 (0%)
same,"Vesiculation/Pustulation maximal post-baseline grade 3, subjects (%)","5-day, N = 84",0 (0%)
same,"Vesiculation/Pustulation maximal post-baseline grade 4, subjects (%)","5-day, N = 84",0 (0%)
same,"Crusting maximal post-baseline grade 0, subjects (%)","5-day, interim N = 67",41 (61%)
same,"Crusting maximal post-baseline grade 1, subjects (%)","5-day, interim N = 67",20 (30%)
same,"Crusting maximal post-baseline grade 2, subjects (%)","5-day, interim N = 67",6 (9%)
same,"Crusting maximal post-baseline grade 3, subjects (%)","5-day, interim N = 67",0 (0%)
same,"Crusting maximal post-baseline grade 4, subjects (%)","5-day, interim N = 67",0 (0%)
same,"Erosion/Ulceration maximal post-baseline grade 0, subjects (%)","5-day, interim N = 67",57 (85%)
same,"Erosion/Ulceration maximal post-baseline grade 1, subjects (%)","5-day, interim N = 67",9 (13%)
same,"Erosion/Ulceration maximal post-baseline grade 2, subjects (%)","5-day, interim N = 67",1 (1%)
same,"Erosion/Ulceration maximal post-baseline grade 3, subjects (%)","5-day, interim N = 67",0 (0%)
same,"Erosion/Ulceration maximal post-baseline grade 4, subjects (%)","5-day, interim N = 67",0 (0%)
same,"Erythema maximal post-baseline grade 0, subjects (%)","5-day, interim N = 67",7 (10%)
same,"Erythema maximal post-baseline grade 1, subjects (%)","5-day, interim N = 67",16 (24%)
same,"Erythema maximal post-baseline grade 2, subjects (%)","5-day, interim N = 67",32 (48%)
same,"Erythema maximal post-baseline grade 3, subjects (%)","5-day, interim N = 67",12 (18%)
same,"Erythema maximal post-baseline grade 4, subjects (%)","5-day, interim N = 67",0 (0%)
same,"Flaking/Scaling maximal post-baseline grade 0, subjects (%)","5-day, interim N = 67",20 (30%)
same,"Flaking/Scaling maximal post-baseline grade 1, subjects (%)","5-day, interim N = 67",14 (21%)
same,"Flaking/Scaling maximal post-baseline grade 2, subjects (%)","5-day, interim N = 67",20 (30%)
same,"Flaking/Scaling maximal post-baseline grade 3, subjects (%)","5-day, interim N = 67",13 (19%)
same,"Flaking/Scaling maximal post-baseline grade 4, subjects (%)","5-day, interim N = 67",0 (0%)
same,"Swelling maximal post-baseline grade 0, subjects (%)","5-day, interim N = 67",53 (79%)
same,"Swelling maximal post-baseline grade 1, subjects (%)","5-day, interim N = 67",12 (18%)
same,"Swelling maximal post-baseline grade 2, subjects (%)","5-day, interim N = 67",1 (1%)
same,"Swelling maximal post-baseline grade 3, subjects (%)","5-day, interim N = 67",1 (1%)
same,"Swelling maximal post-baseline grade 4, subjects (%)","5-day, interim N = 67",0 (0%)
same,"Vesiculation/Pustulation maximal post-baseline grade 0, subjects (%)","5-day, interim N = 67",64 (96%)
same,"Vesiculation/Pustulation maximal post-baseline grade 1, subjects (%)","5-day, interim N = 67",3 (4%)
same,"Vesiculation/Pustulation maximal post-baseline grade 2, subjects (%)","5-day, interim N = 67",0 (0%)
same,"Vesiculation/Pustulation maximal post-baseline grade 3, subjects (%)","5-day, interim N = 67",0 (0%)
same,"Vesiculation/Pustulation maximal post-baseline grade 4, subjects (%)","5-day, interim N = 67",0 (0%)
same,Day from which LSRs were generally observable,Cohort 1 (5-day),3 days
same,Subjects with erosion/ulceration,"Cohort 1 (5-day), 67 subjects with day 57 visit",9
